Laboratory results: patent US11840686B2, “Modulation of prekallikrein (PKK) expression” (Ionis Pharmaceuticals, Inc., priority 2013, dated 2023)
Strand notation (5' to 3'): a small letter for the sugar, then the base; units joined by * are phosphorothioate-linked, units joined directly phosphodiester-linked; [ ] holds rarer units or linkages, { } end groups; capitals alone tell only the bases. e = 2'-O-(2-methoxyethyl) (MOE); k = constrained ethyl (cEt); [5mC] = 5-methylcytosine; d = 2'-deoxy (DNA)

These substances were tested on human PKK mRNA (assay: Antisense inhibition of human PKK mRNA in HepaRG cells, 1,000 nM, MOE/deoxy/cEt oligonucleotides (Example 3)). Settings: HepaRG cells, 1,000 nM antisense oligonucleotide, Table 29.
Type: cell-based
Method in brief: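 HepaRG cells at 20,000 per well electroporated with 1,000 nM 16-mer MOE/cEt/deoxy gapmers (phosphorothioate, 5-methylcytosine). After about 24 h, PKK mRNA measured by qRT-PCR with primer probe set RTS3454, normalized to RIBOGREEN total RNA. Reported as percent inhibition versus untreated cells.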

| Substance | % inhibition |
| --- | --- |
| 548578 (e[5mC]*eA*kT*dG*dG*d[5mC]*dT*dA*dT*dT*dG*d[5mC]*dT*kT*k[5mC]*e[5mC]; antisense) [compound 548578] | 73% |
| 548610 (antisense eG*eG*kA*dT*d[5mC]*dG*dG*dT*dG*dG*dT*dG*dG*kG*kA*eT) [compound 548610] | 2% |
| 548568 (eA*eT*kT*dG*dA*d[5mC]*dA*dA*d[5mC]*d[5mC]*dA*dT*d[5mC]*k[5mC]*kT*eA; antisense) [compound 548568] | 27% |
| 548600 (eT*eG*kG*dT*dG*dG*dT*dG*dG*dG*dA*dT*dT*kG*kG*eT; antisense) [compound 548600] | 53% |
| 548536 (antisense eT*e[5mC]*kT*d[5mC]*dA*dA*dT*d[5mC]*d[5mC]*d[5mC]*dA*dA*d[5mC]*k[5mC]*k[5mC]*e[5mC]) [compound 548536] | 0% |
| 548539 (antisense e[5mC]*eG*k[5mC]*dG*d[5mC]*dG*dA*dA*dT*dG*d[5mC]*d[5mC]*dT*kG*k[5mC]*e[5mC]) [compound 548539] | 41% |

Same assay, conditions: HepaRG cells, electroporation with 1,000 nM antisense oligonucleotide, approx. 24 hours, PKK mRNA by RT-PCR (RTS3454), relative to untreated control cells; Table 25 experiment

| Substance | % inhibition |
| --- | --- |
| 548218 (eT*e[5mC]*k[5mC]*dT*dG*dT*dG*d[5mC]*dA*dT*dA*dG*dA*k[5mC]*k[5mC]*e[5mC]; antisense) [compound 548218] | 59% |

Same assay, conditions: HepaRG cells, electroporation with 1,000 nM antisense oligonucleotide, approx. 24 hours, PKK mRNA by RT-PCR (RTS3454), relative to untreated control cells; Table 26 experiment

| Substance | % inhibition |
| --- | --- |
| 548291 (e[5mC]*e[5mC]*kT*dG*dT*dT*dA*dG*dA*dG*dT*dT*dG*kG*k[5mC]*e[5mC]; antisense) [compound 548291] | 35% |
| 548285 (antisense eG*e[5mC]*kT*dT*dA*d[5mC]*dT*dT*dA*d[5mC]*dA*dT*d[5mC]*k[5mC]*k[5mC]*eT) [compound 548285] | 52% |
| 548246 (eT*eT*k[5mC]*d[5mC]*dA*dT*dG*d[5mC]*dA*dT*dA*d[5mC]*dT*k[5mC]*kG*e[5mC]; antisense) [compound 548246] | 46% |
| 548232 (eG*e[5mC]*k[5mC]*dA*dT*dA*d[5mC]*dA*dT*d[5mC]*dT*dG*dA*kG*kG*eA; antisense) [compound 548232] | 3% |
| 548282 (antisense eG*eT*kG*dG*dG*dT*dT*dT*dG*d[5mC]*dA*d[5mC]*dA*kT*kG*eG) [compound 548282] | 73% |

Same assay, conditions: HepaRG cells, electroporation with 1,000 nM antisense oligonucleotide, approximately 24 hours, primer probe set RTS3454, relative to untreated control cells; experiment of Table 23

| Substance | % inhibition |
| --- | --- |
| 547941 (eG*eT*kG*dT*dG*d[5mC]*d[5mC]*dA*d[5mC]*dT*dT*dT*d[5mC]*kA*kG*eA; antisense) [compound 547941] | 66% |
| 547929 (eA*eG*kA*dT*dG*dG*dT*d[5mC]*d[5mC]*dG*dA*d[5mC]*dA*k[5mC]*kA*e[5mC]; antisense) [compound 547929] | 65% |
| 547970 (antisense e[5mC]*eT*k[5mC]*d[5mC]*d[5mC]*dG*dG*dG*dT*dA*dA*dA*dT*kT*kT*eT) [compound 547970] | 42% |

Same assay, conditions: HepaRG cells, electroporation with 1,000 nM antisense oligonucleotide, approximately 24 hours, primer probe set RTS3454, relative to untreated control cells; experiment of Table 24

| Substance | % inhibition |
| --- | --- |
| 548027 (eG*eT*kG*dT*d[5mC]*d[5mC]*dT*dA*dT*dG*dA*dG*dT*kG*kA*e[5mC]; antisense) [compound 548027] | 18% |
| 548026 (eG*eT*k[5mC]*d[5mC]*dT*dA*dT*dG*dA*dG*dT*dG*dA*k[5mC]*k[5mC]*e[5mC]; antisense) [compound 548026] | 52% |
| 548019 (e[5mC]*e[5mC]*k[5mC]*d[5mC]*dA*dA*dG*dA*dA*dG*dA*dG*dT*kT*kT*eG; antisense) [compound 548019] | 24% |

Same assay, conditions: PKK mRNA, HepaRG cells, 1,000 nM antisense oligonucleotide; Table 31

| Substance | % inhibition |
| --- | --- |
| 548686 (antisense eA*e[5mC]*kG*dA*d[5mC]*dA*dA*dT*dG*dG*dG*dA*dT*kT*k[5mC]*eA) [compound 548686] | 0% |
| 548629 (antisense e[5mC]*e[5mC]*k[5mC]*dA*dT*d[5mC]*dT*dT*dG*dG*dG*dA*d[5mC]*kT*kT*eT) [compound 548629] | 44% |
| 548634 (antisense eG*e[5mC]*k[5mC]*dT*dT*dA*dT*dT*d[5mC]*dT*dG*dT*dG*k[5mC]*kA*eA) [compound 548634] | 0% |
| 548621 (antisense eG*eA*kA*d[5mC]*dA*d[5mC]*dA*dT*d[5mC]*dA*dG*dG*dG*kA*kT*eT) [compound 548621] | 33% |
| 548654 (antisense eA*e[5mC]*k[5mC]*dA*dT*dT*d[5mC]*d[5mC]*dT*dG*dA*d[5mC]*d[5mC]*kA*kT*eG) [compound 548654] | 34% |

Same assay, conditions: Table 19; HepaRG cells, electroporation with 1,000 nM antisense oligonucleotide, approximately 24 hours; PKK mRNA by RT-PCR (RTS3454), relative to untreated control cells

| Substance | % inhibition |
| --- | --- |
| 548081 (e[5mC]*e[5mC]*k[5mC]*d[5mC]*dT*dT*d[5mC]*dT*dT*dT*dA*dT*dA*kG*k[5mC]*e[5mC]; antisense) [compound 548081] | 64% |
| 548139 (eA*eG*kA*dT*dG*dA*dG*dG*dA*d[5mC]*d[5mC]*d[5mC]*d[5mC]*k[5mC]*k[5mC]*eA; antisense) [compound 548139] | 56% |
| 548113 (antisense eG*eG*kT*dG*dA*d[5mC]*dT*dG*d[5mC]*dA*dT*d[5mC]*dT*kG*kA*eG) [compound 548113] | 56% |

Same assay, conditions: Table 20; HepaRG cells, electroporation with 1,000 nM antisense oligonucleotide, approximately 24 hours; PKK mRNA by RT-PCR (RTS3454), relative to untreated control cells

| Substance | % inhibition |
| --- | --- |
| 547871 (antisense eG*e[5mC]*kT*dA*dA*d[5mC]*d[5mC]*dT*dT*dA*dG*dA*d[5mC]*kA*k[5mC]*eA) [compound 547871] | 96% |

Same assay, conditions: Table 21 experiment; HepaRG cells, electroporation with 1,000 nM antisense oligonucleotide, approx. 24 hours; PKK mRNA by RT-PCR (RTS3454), relative to untreated control cells

| Substance | % inhibition |
| --- | --- |
| 547757 (antisense eG*eA*kG*dT*d[5mC]*dT*d[5mC]*dT*dT*dG*dT*d[5mC]*dA*k[5mC]*kT*eT) [compound 547757] | 69% |

Same assay, conditions: Table 22 experiment; HepaRG cells, electroporation with 1,000 nM antisense oligonucleotide, approx. 24 hours; PKK mRNA by RT-PCR (RTS3454), relative to untreated control cells

| Substance | % inhibition |
| --- | --- |
| 547871 (antisense eG*e[5mC]*kT*dA*dA*d[5mC]*d[5mC]*dT*dT*dA*dG*dA*d[5mC]*kA*k[5mC]*eA) [compound 547871] | 77% |
| 547897 (eA*eT*kA*dG*dG*d[5mC]*dA*dA*dT*dT*dG*dT*dT*k[5mC]*k[5mC]*eG; antisense) [compound 547897] | 82% |

Same assay, conditions: Table 27; HepaRG cells, 1,000 nM antisense oligonucleotide; human PKK mRNA

| Substance | % inhibition |
| --- | --- |
| 548309 (eA*eG*kA*d[5mC]*dA*dG*dT*dT*dG*dG*dT*dG*dG*kT*kT*eT; antisense) [compound 548309] | 41% |
| 548344 (antisense eG*eG*k[5mC]*dA*dA*d[5mC]*dT*dA*dT*dG*dT*dT*d[5mC]*kT*k[5mC]*eA) [compound 548344] | 76% |

Same assay, conditions: Table 28; HepaRG cells, 1,000 nM antisense oligonucleotide; human PKK mRNA

| Substance | % inhibition |
| --- | --- |
| 548524 (antisense eG*e[5mC]*k[5mC]*d[5mC]*dG*dA*dT*d[5mC]*dA*d[5mC]*d[5mC]*dT*dT*kA*kG*eA) [compound 548524] | 45% |
| 548482 (eG*eG*k[5mC]*dA*dG*dT*dT*dA*dG*dG*d[5mC]*d[5mC]*dA*kG*kG*eA; antisense) [compound 548482] | 53% |
| 548517 (antisense e[5mC]*eG*kG*dA*d[5mC]*dA*dA*dG*d[5mC]*d[5mC]*dT*dT*dA*k[5mC]*kA*eG) [compound 548517] | 43% |
| 548528 (antisense eT*eG*k[5mC]*dA*dG*dT*dG*dG*dT*d[5mC]*dA*dA*dG*k[5mC]*kA*eT) [compound 548528] | 32% |
| 548497 (antisense e[5mC]*e[5mC]*kT*dT*d[5mC]*dA*dT*dA*d[5mC]*d[5mC]*d[5mC]*d[5mC]*dT*k[5mC]*kA*e[5mC]) [compound 548497] | 26% |

Same assay, conditions: Table 30; human PKK mRNA, HepaRG cells, 1,000 nM antisense oligonucleotide

| Substance | % inhibition |
| --- | --- |
| 548408 (antisense eT*eA*kT*d[5mC]*dA*d[5mC]*dT*dG*dT*dA*d[5mC]*dT*dA*kG*kT*eT) [compound 548408] | 47% |
| 548387 (eT*eG*kA*dA*dG*dG*dG*d[5mC]*dG*dA*dG*dG*d[5mC]*kG*k[5mC]*eA; antisense) [compound 548387] | 22% |
| 548444 (antisense e[5mC]*eT*kA*dT*dG*dT*d[5mC]*dA*d[5mC]*dT*dG*dT*dA*k[5mC]*k[5mC]*eT) [compound 548444] | 43% |
| 548423 (antisense eA*eG*kT*dA*dT*d[5mC]*dA*d[5mC]*dT*dG*dT*d[5mC]*d[5mC]*kT*kA*eT) [compound 548423] | 72% |
